Source: ChEMBL document CHEMBL4346705, “(±)-trans-Dihydronarciclasine and (±)-trans-dihydrolycoricidine analogues modified in their ring A: Evaluation of their anticancer activity and a SAR study” (2019)

Legend:
Assay type in all cases: functional
SN12C = experiment: Antiproliferative activity against human SN12C cells assessed as cell viability at 10^-5 M incubated for 48 hrs by sulforhodamine B assay relative to control; settings: read-out: Activity
HCC 2998 = experiment: Antiproliferative activity against human HCC2998 cells assessed as cell viability at 10^-5 M incubated for 48 hrs by sulforhodamine B assay relative to control; settings: HCC 2998, 48 h, read-out: Activity
HCT-116 = experiment: Antiproliferative activity against human HCT116 cells assessed as cell viability at 10^-5 M incubated for 48 hrs by sulforhodamine B assay relative to control; settings: HCT-116, 48 h, read-out: Activity
UACC-257 = experiment: Antiproliferative activity against human UACC257 cells assessed as cell viability at 10^-5 M incubated for 48 hrs by sulforhodamine B assay relative to control; settings: UACC-257, 48 h, read-out: Activity
SK-MEL-5 = experiment: Antiproliferative activity against human SK-MEL-5 cells assessed as cell viability at 10^-5 M incubated for 48 hrs by sulforhodamine B assay relative to control; settings: SK-MEL-5, 48 h, read-out: Activity
NCI-H522 = experiment: Antiproliferative activity against human NCI-H522 cells assessed as cell viability at 10^-5 M incubated for 48 hrs by sulforhodamine B assay relative to control; settings: NCI-H522, 48 h, read-out: Activity
OVCAR-3 = experiment: Antiproliferative activity against human OVCAR3 cells assessed as cell viability at 10^-5 M incubated for 48 hrs by sulforhodamine B assay relative to control; settings: OVCAR-3, 48 h, read-out: Activity
M14 = experiment: Antiproliferative activity against human M14 cells assessed as cell viability at 10^-5 M incubated for 48 hrs by sulforhodamine B assay relative to control; settings: M14, 48 h, read-out: Activity
NCI/ADR-RES = experiment: Antiproliferative activity against human NCI-ADR-RES cells assessed as cell viability at 10^-5 M incubated for 48 hrs by sulforhodamine B assay relative to control; settings: read-out: Activity
PC-3 = experiment: Antiproliferative activity against human PC3 cells assessed as cell viability at 10^-5 M incubated for 48 hrs by sulforhodamine B assay relative to control; settings: PC-3, 48 h, read-out: Activity
SF-295 = experiment: Antiproliferative activity against human SF295 cells assessed as cell viability at 10^-5 M incubated for 48 hrs by sulforhodamine B assay relative to control; settings: SF-295, 48 h, read-out: Activity
Malme-3M = experiment: Cytotoxicity against human MALME-3M cells assessed as growth inhibition after 48 hrs by sulforhodamine B assay
MDA-MB-468 = experiment: Antiproliferative activity against human MDA-MB-468 cells assessed as cell viability at 10^-5 M incubated for 48 hrs by sulforhodamine B assay relative to control; settings: MDA-MB-468, 48 h, read-out: Activity
MOLT-4 = experiment: Cytotoxicity against human MOLT4 cells assessed as growth inhibition after 48 hrs by sulforhodamine B assay; settings: MOLT-4, 48 h; for CC50: read-out: LC50 (the source's name)
OVCAR-5 = experiment: Antiproliferative activity against human OVCAR5 cells assessed as cell viability at 10^-5 M incubated for 48 hrs by sulforhodamine B assay relative to control; settings: OVCAR-5, 48 h, read-out: Activity
EKVX = experiment: Antiproliferative activity against human EKVX cells assessed as cell viability at 10^-5 M incubated for 48 hrs by sulforhodamine B assay relative to control; settings: read-out: Activity
T47D = experiment: Antiproliferative activity against human T47D cells assessed as cell viability at 10^-5 M incubated for 48 hrs by sulforhodamine B assay relative to control; settings: read-out: Activity
UO-31 = experiment: Antiproliferative activity against human UO31 cells assessed as cell viability at 10^-5 M incubated for 48 hrs by sulforhodamine B assay relative to control; settings: UO-31, 48 h, read-out: Activity
LOX IMVI = experiment: Antiproliferative activity against human LOXIMVI cells assessed as cell viability at 10^-5 M incubated for 48 hrs by sulforhodamine B assay relative to control; settings: read-out: Activity
SK-OV-3 = experiment: Antiproliferative activity against human SKOV3 cells assessed as cell viability at 10^-5 M incubated for 48 hrs by sulforhodamine B assay relative to control; settings: SK-OV-3, 48 h, read-out: Activity
NCI-H322M = experiment: Antiproliferative activity against human NCI-H322M cells assessed as cell viability at 10^-5 M incubated for 48 hrs by sulforhodamine B assay relative to control; settings: read-out: Activity
NCI-H226 = experiment: Antiproliferative activity against human NCI-H226 cells assessed as cell viability at 10^-5 M incubated for 48 hrs by sulforhodamine B assay relative to control; settings: NCI-H226, 48 h, read-out: Activity
KM12 = experiment: Antiproliferative activity against human KM12 cells assessed as cell viability at 10^-5 M incubated for 48 hrs by sulforhodamine B assay relative to control; settings: KM12, 48 h, read-out: Activity
SR = experiment: Antiproliferative activity against human SR cells assessed as cell viability at 10^-5 M incubated for 48 hrs by sulforhodamine B assay relative to control; settings: read-out: Activity
SK-MEL-28 = experiment: Antiproliferative activity against human SK-MEL-28 cells assessed as cell viability at 10^-5 M incubated for 48 hrs by sulforhodamine B assay relative to control; settings: SK-MEL-28, 48 h, read-out: Activity
SNB-19 = experiment: Cytotoxicity against human SNB19 cells assessed as growth inhibition after 48 hrs by sulforhodamine B assay; settings: SNB-19, 48 h
MCF7 = experiment: Cytotoxicity against human MCF7 cells assessed as growth inhibition after 48 hrs by sulforhodamine B assay; settings: MCF7, 48 h
RPMI-8226 = experiment: Antiproliferative activity against human RPMI8226 cells assessed as cell viability at 10^-5 M incubated for 48 hrs by sulforhodamine B assay relative to control; settings: RPMI-8226, 48 h, read-out: Activity
NCI-H23 = experiment: Antiproliferative activity against human NCI-H23 cells assessed as cell viability at 10^-5 M incubated for 48 hrs by sulforhodamine B assay relative to control; settings: NCI-H23, 48 h, read-out: Activity
A549 = experiment: Antiproliferative activity against human A549 cells assessed as cell viability at 10^-5 M incubated for 48 hrs by sulforhodamine B assay relative to control; settings: A549, 48 h, read-out: Activity
IGROV-1 = experiment: Antiproliferative activity against human IGROV1 cells assessed as cell viability at 10^-5 M incubated for 48 hrs by sulforhodamine B assay relative to control; settings: IGROV-1, 48 h, read-out: Activity
COLO 205 = experiment: Antiproliferative activity against human COLO205 cells assessed as cell viability at 10^-5 M incubated for 48 hrs by sulforhodamine B assay relative to control; settings: COLO 205, 48 h, read-out: Activity

| SMILES | viability at 10 µM (SN12C) [%] | viability at 10 µM (HCC 2998) [%] | viability at 10 µM (HCT-116) [%] | viability at 10 µM (UACC-257) [%] | viability at 10 µM (SK-MEL-5) [%] | viability at 10 µM (NCI-H522) [%] | viability at 10 µM (OVCAR-3) [%] | viability at 10 µM (M14) [%] | viability at 10 µM (NCI/ADR-RES) [%] | viability at 10 µM (PC-3) [%] | viability at 10 µM (SF-295) [%] | GI50 (Malme-3M) [nM] | TGI (Malme-3M) [nM] | viability at 10 µM (MDA-MB-468) [%] | GI50 (MOLT-4) [nM] | CC50 (MOLT-4) [nM] | viability at 10 µM (OVCAR-5) [%] | viability at 10 µM (EKVX) [%] | viability at 10 µM (T47D) [%] | viability at 10 µM (UO-31) [%] | further results |
| --- | --- | --- | --- | --- | --- | --- | --- | --- | --- | --- | --- | --- | --- | --- | --- | --- | --- | --- | --- | --- | --- |
| O=C1NC2C(CC(O)C(O)C2O)c2cc3c(c(O)c21)OCCO3 (racemic) | -9.95 | -46.2 | -3.3 | -22.2 | -52.1 | -36.1 | -13 | -45.8 | -0.44 | -9.66 | -14.9 | 190 | 710 | -27.2 | 179 | > 100000 | 3 | -14.3 | -15.8 | -19.7 | LC50 (Malme-3M): 5200 nM; TGI (MOLT-4): 10100 nM; viability at 10 µM (LOX IMVI): -41.1%; viability at 10 µM (SK-OV-3): -10.9%; viability at 10 µM (NCI-H322M): -24.3%; viability at 10 µM (NCI-H226): -11.3%; viability at 10 µM (KM12): -2.6%; viability at 10 µM (SR): -2.37%; viability at 10 µM (SK-MEL-28): -16.4%; GI50 (SNB-19): 155 nM; LC50 (SNB-19): > 100000 nM; TGI (SNB-19): 1030 nM; GI50 (MCF7): 103 nM; LC50 (MCF7): > 100000 nM; TGI (MCF7): 590 nM; viability at 10 µM (RPMI-8226): -28.1%; viability at 10 µM (NCI-H23): -40.9%; viability at 10 µM (A549): -14.3%; viability at 10 µM (IGROV-1): -16.7%; viability at 10 µM (COLO 205): -49% |
| O=C1NC2C(CC(O)C(O)C2O)c2cc3c(c(O)c21)OCO3 (racemic) | -18.4 | -22.8 | -1.49 | -21.8 | -72.7 | -32.6 | -10.8 | -81.7 | 1.95 | -8.66 | -11.5 | 85.9 | 390 | -45.8 | 63.6 | > 100000 | -13.4 | -26.3 | -8.46 | -31 | viability at 10 µM (LOX IMVI): -48.8%; viability at 10 µM (SK-OV-3): -11.2%; viability at 10 µM (NCI-H322M): -14.7%; viability at 10 µM (NCI-H226): -38.3%; viability at 10 µM (KM12): -11.5%; viability at 10 µM (SR): 6.14%; GI50 (SNB-19): 46.6 nM; TGI (SNB-19): 690 nM; GI50 (MCF7): 36.3 nM; TGI (MCF7): 1230 nM; viability at 10 µM (RPMI-8226): -24.2%; viability at 10 µM (NCI-H23): -14.9%; viability at 10 µM (A549): -8.4%; viability at 10 µM (IGROV-1): -7.85%; viability at 10 µM (COLO 205): -38.2% |
